IC50 data for 59 molecules are collected here from patent US10093678B2, “Azaspiro derivatives as TRPM8 antagonists” (RaQualia Pharma Inc., priority 2014, dated 2018).

The target in this test is T1, human TRPM8 (Homo sapiens, UniProt Q7Z2W7).
T1 construct: expressed in transfected cells; host or cells: HEK293
T1 sequence (Q7Z2W7 whole entry): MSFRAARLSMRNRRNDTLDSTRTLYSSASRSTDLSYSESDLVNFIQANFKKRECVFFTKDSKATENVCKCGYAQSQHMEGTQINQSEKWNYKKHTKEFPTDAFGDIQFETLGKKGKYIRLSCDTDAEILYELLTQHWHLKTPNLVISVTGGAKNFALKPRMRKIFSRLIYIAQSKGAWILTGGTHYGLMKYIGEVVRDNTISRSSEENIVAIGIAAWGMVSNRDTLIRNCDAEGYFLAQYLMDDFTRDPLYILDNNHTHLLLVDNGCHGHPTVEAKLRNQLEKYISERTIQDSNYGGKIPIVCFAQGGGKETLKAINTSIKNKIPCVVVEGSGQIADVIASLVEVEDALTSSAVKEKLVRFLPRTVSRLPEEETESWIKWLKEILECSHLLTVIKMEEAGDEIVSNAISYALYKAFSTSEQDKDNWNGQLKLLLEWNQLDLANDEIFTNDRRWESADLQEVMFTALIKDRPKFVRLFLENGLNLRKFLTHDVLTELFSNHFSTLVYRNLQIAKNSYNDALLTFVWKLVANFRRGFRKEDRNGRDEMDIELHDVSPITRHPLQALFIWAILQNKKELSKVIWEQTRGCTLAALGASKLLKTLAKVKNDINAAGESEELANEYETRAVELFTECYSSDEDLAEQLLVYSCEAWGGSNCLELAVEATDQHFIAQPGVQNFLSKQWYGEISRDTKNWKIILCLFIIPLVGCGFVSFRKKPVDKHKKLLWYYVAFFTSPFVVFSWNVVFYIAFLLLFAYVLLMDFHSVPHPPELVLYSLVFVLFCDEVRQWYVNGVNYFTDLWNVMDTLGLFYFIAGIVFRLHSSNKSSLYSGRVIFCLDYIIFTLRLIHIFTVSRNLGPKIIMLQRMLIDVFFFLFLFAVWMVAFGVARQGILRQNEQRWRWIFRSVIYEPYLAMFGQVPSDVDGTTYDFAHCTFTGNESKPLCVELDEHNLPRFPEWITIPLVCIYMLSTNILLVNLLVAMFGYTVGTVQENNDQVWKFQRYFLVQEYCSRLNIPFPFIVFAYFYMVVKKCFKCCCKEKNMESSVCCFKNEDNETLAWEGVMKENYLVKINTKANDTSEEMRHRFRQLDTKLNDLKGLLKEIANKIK
Nature of the test: Menthol-induced Ca2+ influx in HEK293 cells stably expressing human TRPM8. In kind it is cell-based. As to conditions: 30 microM menthol-induced Ca2+ influx, read-out: IC50 against TRPM8. On the procedure:
Measurement of the Menthol-Induced Ca^2+ Influx in HEK293 Cells Stably Expressing Human TRPM8
A cell-based Ca^2+ influx assay using HEK293 cells stably expressing human TRPM8 is used to identify the activity of compounds.
HEK293 cells stably expressing human TRPM8 are grown in T175 flasks at 37° C. in a 5% CO2 humidified incubator to about 80% confluence. Media composition consists of Dulbecco's Modified Eagle Medium (high glucose), 10% fetal calf serum (FCS), 100 units/mLPenicillin, 100 microg/mL Streptomycin and 600 microg/mL Geneticine. At 24 hours prior to assay, cells are seeded in poly-D-lysine coated 384-well plates (BD FALCON) at a density of 30,000 cells per well in culture medium and grown overnight in 5% CO2 at 37° C. On the assay day, growth media is removed and cells are loaded with 0.5 microM Fluo4-AM (Molecular Probes) and 0.005% Pluronic F-127 dissolved in assay buffer (Hank's balanced salt solution (HBSS), 19.4 mM HEPES pH7.4, 2.5 mM Probenecid) for 1 hour at room temperature. After washing with assay buffer, the cells are preincubated with various concentrations of the compounds for 5 min. The changes in intracellular calcium concentration by addition of 30 microM menthol are monitored by the cell imaging technology by Hamamatsu Photonics Functional Drug Screening System (FDSS).
The IC50 values for compounds of the present invention are determined from 11-point dose-response studies. Curves are generated using the average of duplicate wells for each data point. Finally, the IC50 values are calculated with the best-fit dose curve determined by XLfit (ID Business Solutions Ltd.).
`Cc1cc(-n2c(C)cc(C(=O)CN3C(=O)NC4(CCC(F)(F)CC4)C3=O)c2C)no1` [Example 1-1, 3-(2-(2,5-dimethyl-1-(5-methylisoxazol-3-yl)-1H-pyrrol-3-yl)-2-oxoethyl)-8,8-difluoro-1,3-diazaspiro[4.5]decane-2,4-dione]: the half-inhibitory concentration (IC50) was under 100 nM.
`Cc1cc(-n2c(C)cc(C(=O)CN3C(=O)OC4(CCC(F)(F)CC4)C3=O)c2C)no1` [Example 1-2]: the IC50 was under 100 nM.
As to `Cc1cc(-n2c(C)cc(C(=O)CN3C(=O)OC4(CCCCC4)C3=O)c2C)no1` [Example 1-3], the IC50 is under 100 nM.
On to `Cc1cc(-n2c(C)cc(C(=O)CN3C(=O)OC4(CC5CCC4C5)C3=O)c2C)no1` (centres unmarked) [Example 1-4], for which the half-inhibitory concentration (IC50) is under 500 nM.
Under `Cc1cc(-n2c(C)cc(C(=O)CN3C(=O)OC4(CCC(C(F)(F)F)CC4)C3=O)c2C)no1` (centres unmarked) [Example 1-5] stands under 500 nM.
Under `CCc1cc(C(=O)CN2C(=O)NC3(CCCCC3)C2=O)c(C)n1-c1cc(C)on1` [Example 1-14] stands under 500 nM; under `Cc1nc(C(=O)CN2C(=O)NC3(CCCCC3)C2=O)c(C)n1-c1ccccc1` [Example 2-1], under 100 nM; under `Cc1nc(C(=O)CN2C(=O)NC3(CCC(F)(F)CC3)C2=O)c(C)n1-c1ccccc1` [Example 2-2], under 100 nM.
In the case of `Cc1nc(C(=O)CN2C(=O)OC3(CCC(F)(F)CC3)C2=O)c(C)n1-c1ccccc1` [Example 2-3], the concentration for half-maximal inhibition (IC50) is under 100 nM.
Then `Cc1nc(C(=O)CN2C(=O)OC3(CCCCC3)C2=O)c(C)n1-c1ccccc1` [Example 2-4], with under 100 nM; and `Cc1nc(C(=O)CN2CC3(CCC(F)(F)CC3)OC2=O)c(C)n1-c1ccccc1` [Example 2-7], with under 500 nM; and `Cc1cccc(-n2c(C)nc(C(=O)CN3C(=O)CC4(CCC(F)(F)CC4)C3=O)c2C)c1` [Example 2-8], with under 500 nM.
Under `Cc1nc(C(=O)CN2C(=O)NC3(CCC(F)(F)CC3)C2=O)c(C)n1-c1cccc(F)c1` [Example 2-11] stands under 100 nM.
Under `Cc1cccc(-n2c(C)nc(C(=O)CN3C(=O)NC4(CCC(F)(F)CC4)C3=O)c2C)c1` [Example 2-12] stands under 100 nM; under `Cc1cccc(-n2c(C)nc(C(=O)CN3C(=O)NC4(CCCCC4)C3=O)c2C)c1` [Example 2-13], under 100 nM.
In the case of `Cc1nc(C(=O)CN2C(=O)NC3(CCC(F)(F)CC3)C2=O)c(C)n1-c1cccc(Cl)c1` [Example 2-14], the concentration for half-maximal inhibition (IC50) is under 100 nM.
Under `Cc1nc(C(=O)CN2C(=O)NC3(CCCCC3)C2=O)c(C)n1-c1cccc(Cl)c1` [Example 2-15] stands under 100 nM; under `Cc1cccc(-n2c(C)nc(C(=O)CN3CC4(CCC(F)(F)CC4)OC3=O)c2C)c1` [Example 2-17], under 500 nM; under `Cc1nc(C(=O)CN2CC3(CCC(F)(F)CC3)OC2=O)c(C)n1-c1cccc(F)c1` [Example 2-18], under 500 nM.
Then `Cc1cc(-n2c(C)cc(C(=O)CN3C(=O)NC4(CCC(F)(F)CC4)C3=O)c2C)on1` [Example 3-1], with under 100 nM; and `Cc1cncc(-n2c(C)cc(C(=O)CN3C(=O)NC4(CCC(F)(F)CC4)C3=O)c2C)n1` [Example 3-2], with under 100 nM; and `Cc1cncc(-n2c(C)cc(C(=O)CN3C(=O)NC4(CCCCC4)C3=O)c2C)n1` [Example 3-3], with under 100 nM.
Then `Cc1cc(C(=O)CN2C(=O)NC3(CCC(F)(F)CC3)C2=O)c(C)n1-c1ccccc1` [Example 3-4], with under 100 nM.
Regarding `Cc1cccc(-n2c(C)cc(C(=O)CN3C(=O)NC4(CCC(F)(F)CC4)C3=O)c2C)c1` [Example 3-5], the IC50 was under 100 nM.
Under `Cc1cccc(-n2c(C)cc(C(=O)CN3C(=O)NC4(CCCCC4)C3=O)c2C)c1` [Example 3-6] stands under 100 nM; under `Cc1cc(C(=O)CN2C(=O)NC3(CCC(F)(F)CC3)C2=O)c(C)n1-c1cccc(Cl)c1` [Example 3-7], under 100 nM.
Under `COC(=O)c1cccc(-n2c(C)cc(C(=O)CN3C(=O)NC4(CCCCC4)C3=O)c2C)c1` [Example 3-8] stands under 100 nM; under `Cc1cc(C(=O)CN2C(=O)NC3(CCC(F)(F)CC3)C2=O)c(C)n1-c1cccnc1` [Example 3-9], under 100 nM.
Under `Cc1cncc(-n2c(C)cc(C(=O)CN3C(=O)NC4(CC5CCC4C5)C3=O)c2C)c1` (centres unmarked) [Example 3-10] stands under 100 nM; under `Cc1cncc(-n2c(C)cc(C(=O)CN3C(=O)NC4(CCCCC4)C3=O)c2C)c1` [Example 3-11], under 100 nM; under `Cc1cc(C(=O)CN2C(=O)NC3(CCC(F)(F)CC3)C2=O)c(C)n1-c1ccccn1` [Example 3-12], under 100 nM.
Consider `Cc1cccc(-n2c(C)cc(C(=O)CN3C(=O)NC4(CCC(F)(F)CC4)C3=O)c2C)n1` [Example 3-13], for which the IC50 is under 100 nM.
Then `Cc1cccc(-n2c(C)cc(C(=O)CN3C(=O)NC4(CCCCCC4)C3=O)c2C)n1` [Example 3-14], with under 100 nM; and `Cc1cccc(-n2c(C)cc(C(=O)CN3C(=O)NC4(CCC(C(F)(F)F)CC4)C3=O)c2C)n1` (centres unmarked) [Example 3-15], with under 100 nM; and `Cc1cc(C)nc(-n2c(C)cc(C(=O)CN3C(=O)NC4(CCC(F)(F)CC4)C3=O)c2C)c1` [Example 3-16], with under 100 nM.
For `Cc1cnc(-n2c(C)cc(C(=O)CN3C(=O)NC4(CCC(F)(F)CC4)C3=O)c2C)s1` [Example 3-17], the IC50 was under 100 nM.
Take `Cc1cc(C(=O)CN2C(=O)NC3(CCC(F)(F)CC3)C2=O)c(C)n1-c1noc2ccccc12` [Example 3-18]: the IC50 was under 100 nM.
Regarding `Cc1cc(C(=O)CN2C(=O)NC3(CCC(F)(F)CC3)C2=O)c(C)n1-c1cncc2ccccc12` [Example 3-19], the half-inhibitory concentration (IC50) is under 100 nM.
Consider `Cc1cc(C(=O)CN2C(=O)NC3(CCC(F)(F)CC3)C2=O)c(C)n1-c1ccc2ccccc2n1` [Example 3-20], for which the IC50 is under 500 nM.
Under `Cc1cc(C(=O)CN2C(=O)NC3(CCC(F)(F)CC3)C2=O)c(C)n1-c1nnn(C)n1` [Example 3-21] stands under 500 nM; under `Cc1cc(C(=O)CN2C(=O)NC3(CCCCC3)C2=O)c(C)n1-c1cccc(OCC2CC2)n1` [Example 3-28, 3-(2-(1-(6-(cyclopropylmethoxy)pyridin-2-yl)-2,5-dimethyl-1H-pyrrol-3-yl)-2-oxoethyl)-1,3-diazaspiro[4.5]decane-2,4-dione], under 500 nM.
Under `Cc1cc(C(=O)CN2C(=O)NC3(CCCCC3)C2=O)c(C)n1-c1cccc(N2CCCC(O)C2)n1` (centres unmarked) [Example 3-29, 3-(2-(1-(6-(3-hydroxypiperidin-1-yl)pyridin-2-yl)-2,5-dimethyl-1H-pyrrol-3-yl)-2-oxoethyl)-1,3-diazaspiro[4.5]decane-2,4-dione] stands under 500 nM; under `Cc1c(C(=O)CN2C(=O)NC3(CCC(F)(F)CC3)C2=O)nn(C)c1-c1ccccc1` [Example 4-1], under 100 nM.
Under `Cc1c(C(=O)CN2C(=O)NC3(CCCCC3)C2=O)nn(C)c1-c1ccccc1` [Example 4-2] stands under 100 nM; under `Cc1cc(C(=O)CN2C(=O)NC3(CCC(F)(F)CC3)C2=O)n(C)c1-c1ccccc1` [Example 4-3], under 100 nM.
For `Cn1c(-c2ccccc2)cnc1C(=O)CN1C(=O)NC2(CCC(F)(F)CC2)C1=O` [Example 4-4], the 50% inhibitory concentration (IC50) is under 100 nM.
On to `Cc1nc(C(=O)CN2C(=O)NC3(CCC(F)(F)CC3)C2=O)sc1-c1ccccc1` [Example 4-5], for which the 50% inhibitory concentration (IC50) is under 100 nM.
Then `Cc1c(C(=O)CN2C(=O)NC3(CCC(F)(F)CC3)C2=O)ccn1-c1ccccc1` [Example 4-6], with under 100 nM; and `Cc1c(C(=O)CN2C(=O)NC3(CCC(F)(F)CC3)C2=O)nn(C)c1-c1cccnc1` [Example 4-7], with under 500 nM.
Then `Cc1c(C(=O)CN2C(=O)NC3(CCCCC3)C2=O)nn(C)c1-c1cccnc1` [Example 4-8], with under 500 nM; and `Cc1c(C(=O)CN2CC3(CCC(F)(F)CC3)OC2=O)ccn1-c1ccccc1` [Example 4-9], with under 500 nM; and `Cn1c(C(=O)CN2C(=O)NC3(CCC(F)(F)CC3)C2=O)cnc1-c1ccccc1` [Example 4-11], with under 500 nM.
Then `Cc1ccccc1-n1ncc(C(=O)CN2C(=O)NC3(CCC(F)(F)CC3)C2=O)c1C` [Example 4-12], with under 500 nM; and `O=C(CN1C(=O)NC2(CCC(F)(F)CC2)C1=O)c1ccc(-c2cccnc2)nc1` [Example 5-1], with under 100 nM.
As for `O=C(CN1C(=O)NC2(CCCCC2)C1=O)c1ccc(-c2cccnc2)nc1` [Example 5-2], the IC50 was under 100 nM.
Under `COc1cc(C(=O)CN2C(=O)NC3(CCC(F)(F)CC3)C2=O)ccc1-c1cccnc1` [Example 5-3] stands under 100 nM; under `COc1cc(C(=O)CN2C(=O)NC3(CCC(F)(F)CC3)C2=O)ccc1-c1cccc(F)c1` [Example 5-4], under 500 nM.
As for `COc1cc(C(=O)CN2C(=O)NC3(CCC(F)(F)CC3)C2=O)ccc1-c1ccccc1C#N` [Example 5-5], the half-maximal inhibitory concentration (IC50) was under 100 nM.
Then `O=C(CN1C(=O)NC2(CCC(F)(F)CC2)C1=O)c1ccc(-n2ncc3ccccc32)cc1` [Example 5-6], with under 100 nM.

What is called IC50 is the concentration that gives 50% inhibition.
